In patent US20150321985A1, “(HYDROXYSTILBENE COMPOUND)-(SINAPINIC ACID) REACTION PRODUCT HAVING ANTIFEEDING ACTIVITY” (UHA MIKAKUTO CO., LTD., priority 2012, published 2015):

Columns and labels:
[1] = system: agouti-related peptide (AgRP); conditions: reporter assay in cultured cells; cited from earlier work
[2] = system: female mice C57BL/6j; test: Examination of antifeeding activity: test diets freely fed to mice for 42 days; assay type: in vivo; conditions: for Total diet intake during test period: C57BL/6j mice
Procedure: To examine the antifeeding activity of UHA1028, 8-week-old female mice C57BL/6j (manufactured by CLEA Japan, Inc.) were used. […] The mice were freely fed for 42 days. During the feeding period of test diets, the diet intake and the weight were measured twice a week.
A required amount of the UHA1028 was obtained by repeating the formation and isolation described in Example 1.
In Table 2, the amount of each component is represented as g per kg of diet.
The test diets fed to the control groups are, a normal diet, a high-fat diet, and a high-fat diet containing resveratrol but containing no test substance respectively.

[3] = system: NPY; conditions: reporter assay in cultured cells; cited from earlier work
[4] = 0.4% test substance in high-fat diet, 42 days

SMILES	expression of AgRP [1]	Total diet intake during test period [2, 4]	antifeeding activity on long-term administration ([2]; administered for a long period of time, as in the examples)	expression of NPY [3]	change in diet intake (FIG. 2) ([2]; 0.05% UHA1028-containing high-fat diet versus 0.4% resveratrol intake group)	Total diet intake during test period ([2]; 0.05% test substance in high-fat diet, 42 days)	Total diet intake during test period ([2]; 0.1% test substance in high-fat diet, 42 days)	Total diet intake during test period ([2]; 0.2% test substance in high-fat diet, 42 days)	weight increase (FIG. 3) ([2]; 0.4% UHA1028 in high-fat diet versus 0.4% resveratrol intake group)	diet intake versus the other groups ([2]; UHA1028 intake groups 0.05-0.4% in high-fat diet, Table 3)	anatomy of the mice at the end of the test (organs) ([2]; four UHA1028 intake groups (0.05-0.4%), 42 days)
Oc1ccc(C=Cc2cc(O)cc(O)c2)cc1 [Resveratrol, resveratrol, reference compound]	suppressed the expression of AgRP and NPY	106.7 g	very low antifeeding activity	suppressed the expression of AgRP and NPY							
COc1cc(C(C)c2c(O)cc(/C=C/c3ccc(O)cc3)cc2O)cc(OC)c1O (stereo not drawn) [UHA1028]		97.5 g			significantly reduced as compared with the resveratrol intake group	88.4 g	87.1 g	99.9 g	significantly suppressed as compared with the resveratrol intake group	significantly lower than those of the other groups	no contraction or hypertrophy of organs was observed
